Measured values taken from ChEMBL document CHEMBL1201862, “PubChem BioAssay data set” (2004).
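Results reflect a 48-hour exposure of cells in 96-well plates to compound at five concentrations. At the GI50, growth is halved.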 The source made the active and inactive calls. Rule as the data show it: active = GI50 up to about 1.1 µM and inactive = higher.

Legend:
Assay in all cases: NCI-60 cell line screen, 48 h
NCI-H522 = test system: NCI-H522
SF-295 = test system: SF-295
OVCAR-3 = test system: OVCAR-3
DMS-273 = test system: DMS-273
CCRF-CEM = test system: CCRF-CEM
A549 = test system: A549
COLO 205 = test system: COLO 205
M19-MEL = test system: M19-MEL
HCT-116 = test system: HCT-116
NCI-H23 = test system: NCI-H23
NCI-H226 = test system: NCI-H226
SW-620 = test system: SW-620
ACHN = test system: ACHN
KM12 = test system: KM12
SK-MEL-28 = test system: SK-MEL-28
HOP-62 = test system: HOP-62
NCI-H460 = test system: NCI-H460
SNB-19 = test system: SNB-19
DMS-114 = test system: DMS-114
KM-20L2 = test system: KM-20L2
Malme-3M = test system: Malme-3M
SF-268 = test system: SF-268
SNB-75 = test system: SNB-75
M14 = test system: M14
LXFL 529 = test system: LXFL 529
SK-MEL-5 = test system: SK-MEL-5
IGROV-1 = test system: IGROV-1
HOP-92 = test system: HOP-92
UO-31 = test system: UO-31
SF-539 = test system: SF-539
U-251 = test system: U-251
HCC 2998 = test system: HCC 2998
SR = test system: SR
RXF 631 = test system: RXF 631
EKVX = test system: EKVX
LOX IMVI = test system: LOX IMVI
OVCAR-8 = test system: OVCAR-8
SNB-78 = test system: SNB-78
UACC-62 = test system: UACC-62
SN12C = test system: SN12C
UACC-257 = test system: UACC-257
RXF 393 = test system: RXF 393
MOLT-4 = test system: MOLT-4
XF498 = test system: XF498
OVCAR-4 = test system: OVCAR-4
CAKI-1 = test system: CAKI-1
A498 = test system: A498
K562 = test system: K562
HL-60 = test system: HL-60
TK-10 = test system: TK-10
SK-OV-3 = test system: SK-OV-3
786-0 = test system: 786-0
HT-29 = test system: HT-29
HOP-18 = test system: HOP-18
DLD-1 = test system: DLD-1
RPMI-8226 = test system: RPMI-8226
OVCAR-5 = test system: OVCAR-5
HCT-15 = test system: HCT-15
SK-MEL-2 = test system: SK-MEL-2

For N=C(N)NS(=O)(=O)c1ccc(NC(=O)c2cccn3c(=O)c4ccccc4nc23)cc1, the GI50 (NCI-H522) was 35 µM (inactive), the GI50 (SF-295) was 85.5 µM (inactive) and the GI50 (OVCAR-3) was > 100 µM (inactive). The GI50 (DMS-273) was 32.1 µM (inactive), the GI50 (CCRF-CEM) was 35.6 µM (inactive) and the GI50 (A549) was 45.6 µM (inactive). For the same compound, the GI50 (COLO 205) was 18.2 µM (inactive), the GI50 (M19-MEL) was 31.4 µM (inactive) and the GI50 (HCT-116) was 40.8 µM (inactive). The GI50 (NCI-H23) was 38 µM (inactive), the GI50 (NCI-H226) was 44.8 µM (inactive) and the GI50 (SW-620) was 51.5 µM (inactive). For the same compound, the GI50 (ACHN) was 81.8 µM (inactive), the GI50 (KM12) was 15.9 µM (inactive) and the GI50 (SK-MEL-28) was 91 µM (inactive). For the same compound, the GI50 (HOP-62) was > 100 µM (inactive), the GI50 (NCI-H460) was 53.1 µM (inactive) and the GI50 (SNB-19) was > 100 µM (inactive). The GI50 (DMS-114) was 40.6 µM (inactive), the GI50 (KM-20L2) was 13.6 µM (inactive) and the GI50 (Malme-3M) was > 100 µM (inactive). The GI50 (SF-268) was > 100 µM (inactive), the GI50 (SNB-75) was > 100 µM (inactive) and the GI50 (M14) was 60.8 µM (inactive). For the same compound, the GI50 (LXFL 529) was 37.5 µM (inactive), the GI50 (SK-MEL-5) was 27 µM (inactive) and the GI50 (IGROV-1) was 56 µM (inactive). The GI50 (HOP-92) was > 100 µM (inactive), the GI50 (UO-31) was 55.1 µM (inactive) and the GI50 (SF-539) was > 100 µM (inactive). The GI50 (U-251) was > 100 µM (inactive), the GI50 (HCC 2998) was 85.7 µM (inactive) and the GI50 (SR) was 24.5 µM (inactive). For the same compound, the GI50 (RXF 631) was 41.4 µM (inactive), the GI50 (EKVX) was > 100 µM (inactive) and the GI50 (LOX IMVI) was 33.7 µM (inactive). The GI50 (OVCAR-8) was 84.5 µM (inactive), the GI50 (SNB-78) was > 100 µM (inactive) and the GI50 (UACC-62) was 32.9 µM (inactive). The GI50 (SN12C) was 70.8 µM (inactive), the GI50 (UACC-257) was 19.7 µM (inactive) and the GI50 (RXF 393) was 62.8 µM (inactive). The GI50 (MOLT-4) was 25.5 µM (inactive), the GI50 (XF498) was 22.5 µM (inactive) and the GI50 (OVCAR-4) was 41.6 µM (inactive). The GI50 (CAKI-1) was > 100 µM (inactive), the GI50 (A498) was > 100 µM (inactive) and the GI50 (K562) was 32.3 µM (inactive). For the same compound, the GI50 (HL-60) was 24.5 µM (inactive), the GI50 (TK-10) was 61 µM (inactive) and the GI50 (SK-OV-3) was > 100 µM (inactive). The GI50 (786-0) was > 100 µM (inactive), the GI50 (HT-29) was 23.2 µM (inactive) and the GI50 (HOP-18) was > 100 µM (inactive). The GI50 (DLD-1) was 83 µM (inactive) and the GI50 (RPMI-8226) was 24.9 µM (inactive).

For CN(C)CC(=O)N1CCc2c([nH]c3ccccc23)C1c1cccnc1 (stereo not drawn), the GI50 (NCI-H522) was > 100 µM (inactive), the GI50 (SF-295) was 0.0498 µM (active) and the GI50 (OVCAR-3) was > 100 µM (inactive). For the same compound, the GI50 (DMS-273) was 0.0187 µM (active), the GI50 (CCRF-CEM) was > 100 µM (inactive) and the GI50 (A549) was > 100 µM (inactive). The GI50 (M19-MEL) was > 100 µM (inactive), the GI50 (HCT-116) was > 100 µM (inactive) and the GI50 (NCI-H23) was > 100 µM (inactive). For the same compound, the GI50 (OVCAR-5) was > 100 µM (inactive), the GI50 (SW-620) was > 100 µM (inactive) and the GI50 (ACHN) was > 100 µM (inactive). The GI50 (KM12) was > 100 µM (inactive), the GI50 (SK-MEL-28) was > 100 µM (inactive) and the GI50 (HOP-62) was > 100 µM (inactive). The GI50 (NCI-H460) was > 100 µM (inactive), the GI50 (SNB-19) was > 100 µM (inactive) and the GI50 (DMS-114) was > 100 µM (inactive). The GI50 (KM-20L2) was > 100 µM (inactive), the GI50 (SF-268) was > 100 µM (inactive) and the GI50 (SNB-75) was 65 µM (inactive). The GI50 (M14) was > 100 µM (inactive), the GI50 (LXFL 529) was > 100 µM (inactive) and the GI50 (SK-MEL-5) was > 100 µM (inactive). For the same compound, the GI50 (IGROV-1) was > 100 µM (inactive), the GI50 (HOP-92) was 26.9 µM (inactive) and the GI50 (UO-31) was 22.5 µM (inactive). The GI50 (SF-539) was > 100 µM (inactive), the GI50 (U-251) was > 100 µM (inactive) and the GI50 (HCC 2998) was > 100 µM (inactive). For the same compound, the GI50 (SR) was > 100 µM (inactive), the GI50 (RXF 631) was > 100 µM (inactive) and the GI50 (EKVX) was > 100 µM (inactive). The GI50 (LOX IMVI) was > 100 µM (inactive), the GI50 (OVCAR-8) was > 100 µM (inactive) and the GI50 (SNB-78) was > 100 µM (inactive). The GI50 (UACC-62) was > 100 µM (inactive), the GI50 (SN12C) was > 100 µM (inactive) and the GI50 (UACC-257) was > 100 µM (inactive). For the same compound, the GI50 (MOLT-4) was > 100 µM (inactive), the GI50 (XF498) was > 100 µM (inactive) and the GI50 (OVCAR-4) was > 100 µM (inactive). The GI50 (CAKI-1) was > 100 µM (inactive), the GI50 (A498) was > 100 µM (inactive) and the GI50 (HCT-15) was greater than 100 µM. The GI50 (K562) was > 100 µM (inactive), the GI50 (HL-60) was > 100 µM (inactive) and the GI50 (TK-10) was > 100 µM (inactive). For the same compound, the GI50 (SK-OV-3) was > 100 µM (inactive), the GI50 (786-0) was > 100 µM (inactive) and the GI50 (HT-29) was > 100 µM (inactive). The GI50 (HOP-18) was > 100 µM (inactive), the GI50 (DLD-1) was > 100 µM (inactive) and the GI50 (RPMI-8226) was > 100 µM (inactive).

COC(=O)C(CCCCCCCC(C(=O)OC)C1=Nc2nnc(N)n2C1=O)C1=Nc2nnc(N)n2C1=O (stereo not drawn) was tested, and the GI50 (NCI-H522) was > 100 µM (inactive), the GI50 (SF-295) was 61.9 µM (inactive) and the GI50 (OVCAR-3) was > 100 µM (inactive). For the same compound, the GI50 (DMS-273) was > 100 µM (inactive), the GI50 (CCRF-CEM) was > 100 µM (inactive) and the GI50 (A549) was > 100 µM (inactive). For the same compound, the GI50 (COLO 205) was > 100 µM (inactive), the GI50 (M19-MEL) was 26.1 µM (inactive) and the GI50 (HCT-116) was > 100 µM (inactive). For the same compound, the GI50 (NCI-H23) was > 100 µM (inactive), the GI50 (NCI-H226) was > 100 µM (inactive) and the GI50 (OVCAR-5) was > 100 µM (inactive). For the same compound, the GI50 (SW-620) was > 100 µM (inactive), the GI50 (ACHN) was > 100 µM (inactive) and the GI50 (KM12) was > 100 µM (inactive). The GI50 (SK-MEL-28) was > 100 µM (inactive), the GI50 (HOP-62) was > 100 µM (inactive) and the GI50 (NCI-H460) was > 100 µM (inactive). For the same compound, the GI50 (SNB-19) was > 100 µM (inactive), the GI50 (DMS-114) was > 100 µM (inactive) and the GI50 (KM-20L2) was > 100 µM (inactive). For the same compound, the GI50 (Malme-3M) was > 100 µM (inactive), the GI50 (SF-268) was > 100 µM (inactive) and the GI50 (SNB-75) was 48.3 µM (inactive). For the same compound, the GI50 (M14) was > 100 µM (inactive), the GI50 (LXFL 529) was > 100 µM (inactive) and the GI50 (SK-MEL-5) was > 100 µM (inactive). For the same compound, the GI50 (IGROV-1) was > 100 µM (inactive), the GI50 (HOP-92) was 65.8 µM (inactive) and the GI50 (UO-31) was > 100 µM (inactive). For the same compound, the GI50 (SF-539) was 84.3 µM (inactive), the GI50 (U-251) was > 100 µM (inactive) and the GI50 (HCC 2998) was > 100 µM (inactive). The GI50 (SR) was > 100 µM (inactive), the GI50 (RXF 631) was > 100 µM (inactive) and the GI50 (EKVX) was > 100 µM (inactive). The GI50 (LOX IMVI) was > 100 µM (inactive), the GI50 (OVCAR-8) was 94.8 µM (inactive) and the GI50 (SNB-78) was > 100 µM (inactive). For the same compound, the GI50 (UACC-62) was > 100 µM (inactive), the GI50 (SN12C) was > 100 µM (inactive) and the GI50 (UACC-257) was > 100 µM (inactive). For the same compound, the GI50 (SK-MEL-2) was > 100 µM (inactive), the GI50 (RXF 393) was 55.8 µM (inactive) and the GI50 (MOLT-4) was > 100 µM (inactive). The GI50 (XF498) was > 100 µM (inactive), the GI50 (OVCAR-4) was > 100 µM (inactive) and the GI50 (CAKI-1) was 11.2 µM (inactive). For the same compound, the GI50 (A498) was > 100 µM (inactive), the GI50 (HCT-15) was greater than 100 µM and the GI50 (HL-60) was > 100 µM (inactive). The GI50 (TK-10) was > 100 µM (inactive), the GI50 (SK-OV-3) was > 100 µM (inactive) and the GI50 (786-0) was > 100 µM (inactive). For the same compound, the GI50 (HT-29) was > 100 µM (inactive), the GI50 (HOP-18) was > 100 µM (inactive) and the GI50 (DLD-1) was > 100 µM (inactive). The GI50 (RPMI-8226) was 4.07 µM (inactive).
